Laboratory results as given in ChEMBL document CHEMBL1201862, “PubChem BioAssay data set” (2004).
Active and inactive are the calls of the source.

What was measured:
cells [1] = assay type: functional, cell-based
INS1 = experiment: beta cell apoptosis inhibitors, cytokine rescue, dose response, luminescence, retest (AID 449756); assay type: functional, cell-based; settings: Rattus norvegicus;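 note: cell death triggered by IL-1 beta plus TNF-alpha plus IFN-gamma mixture; protective hits raise ATP signal compared with cytokine alone wells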
[2] = target: ATP-dependent molecular chaperone HSP82 (Candida albicans (strain WO-1) (Yeast), UniProt C4YTQ8); experiment: loss of DOC-induced GRE-beta-galactosidase reporter signal, dose response, Hsp90 inhibitor project, S. cerevisiae, luminescence (AID 2400); assay type: functional, cell-based;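 note: beta-galactosidase luminescence from glucocorticoid response element reporter as proxy for Hsp90 function; inhibitor potency where signal loss means Hsp90 inhibition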
ATP-dependent molecular chaperone HSP82, sequence (C4YTQ8 whole entry): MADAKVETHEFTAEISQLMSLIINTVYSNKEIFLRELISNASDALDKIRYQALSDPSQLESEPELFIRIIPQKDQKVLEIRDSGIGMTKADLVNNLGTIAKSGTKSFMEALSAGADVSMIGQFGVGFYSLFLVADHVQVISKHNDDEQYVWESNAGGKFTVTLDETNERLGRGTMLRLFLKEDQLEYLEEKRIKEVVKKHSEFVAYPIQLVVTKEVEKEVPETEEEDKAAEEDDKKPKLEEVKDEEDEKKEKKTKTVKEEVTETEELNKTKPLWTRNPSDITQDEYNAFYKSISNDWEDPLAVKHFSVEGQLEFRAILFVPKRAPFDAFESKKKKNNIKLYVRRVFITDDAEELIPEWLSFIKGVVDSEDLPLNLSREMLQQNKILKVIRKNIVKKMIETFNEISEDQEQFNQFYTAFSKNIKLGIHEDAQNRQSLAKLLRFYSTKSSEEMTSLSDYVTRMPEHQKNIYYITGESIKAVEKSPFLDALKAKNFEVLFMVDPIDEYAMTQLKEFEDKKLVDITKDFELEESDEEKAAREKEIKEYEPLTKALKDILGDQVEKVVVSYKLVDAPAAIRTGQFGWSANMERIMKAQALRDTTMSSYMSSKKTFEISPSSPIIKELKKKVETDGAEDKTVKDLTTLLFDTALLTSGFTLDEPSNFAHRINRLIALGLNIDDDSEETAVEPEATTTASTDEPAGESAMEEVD

[3] = NIH-3T3 fibroblast cytotoxicity, dose response, cytotoxicity control, cell-based, fluorescence, Alamar Blue, secondary assay (AID 2327); assay type: functional;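 note: NIH-3T3 mouse fibroblasts cultured with fluconazole at 8 µg/mL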
[4] = target: Photoreceptor-specific nuclear receptor (Homo sapiens, UniProt Q9Y5X4); assay type: functional, cell-based;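 note: CHO-S cells with Gal4-NCOR and VP16-NR2E3 two-hybrid luciferase reporter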
Photoreceptor-specific nuclear receptor, sequence (Q9Y5X4 whole entry, the tested form may be a part): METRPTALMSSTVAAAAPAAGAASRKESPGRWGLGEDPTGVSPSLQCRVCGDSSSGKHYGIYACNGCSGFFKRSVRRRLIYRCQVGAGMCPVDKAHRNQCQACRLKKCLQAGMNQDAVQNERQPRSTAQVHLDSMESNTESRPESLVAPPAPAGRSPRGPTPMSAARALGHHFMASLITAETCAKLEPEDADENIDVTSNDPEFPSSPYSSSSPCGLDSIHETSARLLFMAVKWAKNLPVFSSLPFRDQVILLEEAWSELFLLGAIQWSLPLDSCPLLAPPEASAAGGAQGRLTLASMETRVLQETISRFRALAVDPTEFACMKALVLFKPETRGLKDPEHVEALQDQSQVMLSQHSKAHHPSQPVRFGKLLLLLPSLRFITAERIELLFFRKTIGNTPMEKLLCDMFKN

[5] = target: T1, Serine/threonine-protein phosphatase (Candida dubliniensis (strain CD36 / CBS 7987 / NCPF 3949 / NRRLY-17841) (Yeast), UniProt B9W6M3); experiment: calcineurin pathway inhibitors in yeast reporter, dose response, S. cerevisiae, CDRE-lacZ, luminescence, secondary (AID 2388); assay type: functional, cell-based;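 note: yeast reporter cells carrying a calcineurin-responsive lacZ construct stimulated with calcium chloride; luminescent beta-galactosidase reporter signal in whole cells rather than isolated phosphatase activity; potency for inhibition where a drop in reporter signal means calcineurin blockade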
T1 sequence (B9W6M3 whole entry): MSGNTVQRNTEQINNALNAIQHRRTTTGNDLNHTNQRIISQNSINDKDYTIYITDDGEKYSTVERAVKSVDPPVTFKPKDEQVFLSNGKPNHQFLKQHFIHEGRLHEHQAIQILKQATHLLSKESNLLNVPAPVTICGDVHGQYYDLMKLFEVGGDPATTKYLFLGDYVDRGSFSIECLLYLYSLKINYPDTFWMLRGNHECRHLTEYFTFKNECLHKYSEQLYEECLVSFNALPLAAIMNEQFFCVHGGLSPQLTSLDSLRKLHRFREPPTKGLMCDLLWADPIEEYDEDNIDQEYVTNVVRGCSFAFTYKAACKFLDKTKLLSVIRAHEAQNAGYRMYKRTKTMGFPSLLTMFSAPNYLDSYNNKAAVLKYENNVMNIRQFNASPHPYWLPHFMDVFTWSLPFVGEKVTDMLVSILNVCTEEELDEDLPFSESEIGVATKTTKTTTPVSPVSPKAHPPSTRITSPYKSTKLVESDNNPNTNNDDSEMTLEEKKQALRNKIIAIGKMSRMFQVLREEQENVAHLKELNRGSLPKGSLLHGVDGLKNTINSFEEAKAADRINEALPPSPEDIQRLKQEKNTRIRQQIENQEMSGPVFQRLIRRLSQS

cells [6] = assay type: functional, cell-based; remark: listed apart in the source
[7] = C. albicans growth with fluconazole, confirmation, fluorescence, retest (AID 2467); assay type: functional, cell-based
[8] = cytotoxicity toward NIH3T3 fibroblasts, dose response, counter-screen, cell-based, ATP luminescence, mouse fibroblasts (AID 2010); assay type: functional;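 note: cells exposed to compound for about 90 hours before reading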
[9] = inhibitors of intracellular T. cruzi replication, confirmation, NIH3T3 host cells, beta-gal luminescence (AID 2044); assay type: functional, cell-based;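 note: intracellular parasites grown in NIH/3T3 mouse fibroblasts as host cells; luminescent beta-galactosidase reporter signal from transgenic T. cruzi replicating inside host cells; inhibitors lower the luminescence signal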
Vero = experiment: Vero cell toxicity, dose response, cytotoxicity control, plate reader, cherry-pick samples (AID 687020); assay type: functional, cell-based; settings: Chlorocebus sabaeus
[10] = off-target signal loss in HeLa-CEM21 co-culture – HeLa F-luc CTL cells, cherry-picked, counter-screen for HIV-1 Env fusion inhibitor project, dose response (AID 652040); assay type: functional, cell-based;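 note: potency for signal decrease marking cytotoxic or nonspecific inhibition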
[11] = ZM109 Env clade C HIV-1 fusion inhibitors, dose response, HeLa effector, CEM target cells, luciferase, cherry-pick (AID 652058); assay type: functional, cell-based
[12] = inhibitors of HIV Env-driven cell fusion, dose response, cherry-pick (AID 652057); assay type: functional, cell-based
[13] = inhibitors of clade B AD8 Env fusion, dose response, cell-based, cherry-pick (AID 652062); assay type: functional;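 note: luciferase signal from cell-cell fusion driven by HIV-1 clade B AD8 Env; potency is for inhibitors of fusion seen as a drop in luminescence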
Cytochrome P450 2D6 = Cytochrome P450 2D6 (Homo sapiens, UniProt P10635);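 note: CYP2D6 member of a cytochrome P450 panel assay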
Cytochrome P450 2D6, sequence (P10635 whole entry): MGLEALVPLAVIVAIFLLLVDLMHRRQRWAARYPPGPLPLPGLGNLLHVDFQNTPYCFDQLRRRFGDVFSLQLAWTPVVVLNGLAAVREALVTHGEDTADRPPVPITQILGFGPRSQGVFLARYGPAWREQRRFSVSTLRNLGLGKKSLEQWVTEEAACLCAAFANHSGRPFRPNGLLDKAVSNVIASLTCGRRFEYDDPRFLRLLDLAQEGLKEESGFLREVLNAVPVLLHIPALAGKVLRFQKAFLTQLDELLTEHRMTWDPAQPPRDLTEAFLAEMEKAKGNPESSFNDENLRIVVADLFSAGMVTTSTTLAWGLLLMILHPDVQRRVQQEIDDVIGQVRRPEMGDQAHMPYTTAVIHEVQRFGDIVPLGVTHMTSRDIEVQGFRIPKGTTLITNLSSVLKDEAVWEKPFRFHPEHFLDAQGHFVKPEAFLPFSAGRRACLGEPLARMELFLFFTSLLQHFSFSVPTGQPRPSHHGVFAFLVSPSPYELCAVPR

[14] = target: Luciferin 4-monooxygenase (Photinus pyralis, UniProt P08659); experiment: firefly luciferase enzyme inhibitors, dose response, biochemical, luminescence (AID 1891)
Luciferin 4-monooxygenase, sequence (P08659 whole entry): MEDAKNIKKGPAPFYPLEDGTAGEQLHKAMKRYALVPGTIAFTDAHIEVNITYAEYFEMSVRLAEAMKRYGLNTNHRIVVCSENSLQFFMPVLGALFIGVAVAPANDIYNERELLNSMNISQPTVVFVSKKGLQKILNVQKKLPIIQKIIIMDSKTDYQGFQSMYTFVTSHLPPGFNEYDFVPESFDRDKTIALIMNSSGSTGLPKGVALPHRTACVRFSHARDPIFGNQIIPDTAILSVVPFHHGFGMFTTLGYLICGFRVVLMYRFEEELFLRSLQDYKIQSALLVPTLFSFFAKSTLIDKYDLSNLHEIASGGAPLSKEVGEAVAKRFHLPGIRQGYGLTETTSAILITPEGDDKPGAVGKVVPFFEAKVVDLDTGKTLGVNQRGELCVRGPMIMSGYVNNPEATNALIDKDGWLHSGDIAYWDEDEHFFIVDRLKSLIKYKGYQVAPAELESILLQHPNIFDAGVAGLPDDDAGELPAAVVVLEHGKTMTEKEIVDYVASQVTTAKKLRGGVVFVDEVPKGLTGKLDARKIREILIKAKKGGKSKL

[15] = Luminescence Cell-Based Dose Confirmation HTS to Identify Inhibitors of Platelet Dense Granule Release. [Related pubchem assays: 1663 (Primary HTS), 1678 (Summary of Project)]; assay type: functional
HEK293 [16] = experiment: cells; settings: Homo sapiens
HEK293 [17] = experiment: cells; settings: Homo sapiens; remark: listed apart in the source
Troponin, cardiac muscle = Troponin, cardiac muscle (Homo sapiens, UniProt P19429+P45379+P63316); experiment: Fluorescence-based biochemical high throughput dose response assay for activators of the calcium sensitivity of cardiac Regulated Thin Filaments (RTF). [Related pubchem assays (depositor defined):AID493008, AID493018, AID504382, AID504383]; assay type: protein-complex assay
Beta-lactamase [18] = target: Beta-lactamase (Salmonella choleraesuis (strain SC-B67), UniProt Q5J463)
Beta-lactamase (Salmonella choleraesuis (strain SC-B67), UniProt Q5J463), sequence (Q5J463 whole entry): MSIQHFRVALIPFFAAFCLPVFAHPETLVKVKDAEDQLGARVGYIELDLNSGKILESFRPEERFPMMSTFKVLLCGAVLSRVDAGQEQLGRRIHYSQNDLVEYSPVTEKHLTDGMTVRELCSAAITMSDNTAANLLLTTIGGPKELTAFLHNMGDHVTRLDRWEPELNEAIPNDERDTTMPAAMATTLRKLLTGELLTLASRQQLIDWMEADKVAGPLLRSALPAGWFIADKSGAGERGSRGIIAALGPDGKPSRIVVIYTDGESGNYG

Beta-lactamase [19] = target: Beta-lactamase (Pseudomonas aeruginosa, UniProt Q79MP6);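 note: biochemical dose-response test of metallo-beta-lactamase enzyme inhibition, read out by epi-absorbance; purified recombinant IMP-1 metallo-beta-lactamase with nitrocefin as substrate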
Beta-lactamase (Pseudomonas aeruginosa, UniProt Q79MP6), sequence (Q79MP6 whole entry): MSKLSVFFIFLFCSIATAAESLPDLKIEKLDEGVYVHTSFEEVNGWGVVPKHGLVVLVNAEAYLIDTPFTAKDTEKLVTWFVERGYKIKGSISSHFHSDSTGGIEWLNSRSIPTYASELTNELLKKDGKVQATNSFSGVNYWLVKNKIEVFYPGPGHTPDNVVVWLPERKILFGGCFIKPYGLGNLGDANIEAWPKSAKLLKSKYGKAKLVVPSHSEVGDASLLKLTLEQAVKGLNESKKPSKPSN

[20] = target: T2, DNA repair and recombination protein RAD54-like (Homo sapiens, UniProt Q92698); experiment: inhibitors of human RAD54 branch migration, confirmation, biochemical, fluorescence, cherry-picked samples, dose series (AID 651657); assay type: functional
T2 sequence (Q92698 whole entry): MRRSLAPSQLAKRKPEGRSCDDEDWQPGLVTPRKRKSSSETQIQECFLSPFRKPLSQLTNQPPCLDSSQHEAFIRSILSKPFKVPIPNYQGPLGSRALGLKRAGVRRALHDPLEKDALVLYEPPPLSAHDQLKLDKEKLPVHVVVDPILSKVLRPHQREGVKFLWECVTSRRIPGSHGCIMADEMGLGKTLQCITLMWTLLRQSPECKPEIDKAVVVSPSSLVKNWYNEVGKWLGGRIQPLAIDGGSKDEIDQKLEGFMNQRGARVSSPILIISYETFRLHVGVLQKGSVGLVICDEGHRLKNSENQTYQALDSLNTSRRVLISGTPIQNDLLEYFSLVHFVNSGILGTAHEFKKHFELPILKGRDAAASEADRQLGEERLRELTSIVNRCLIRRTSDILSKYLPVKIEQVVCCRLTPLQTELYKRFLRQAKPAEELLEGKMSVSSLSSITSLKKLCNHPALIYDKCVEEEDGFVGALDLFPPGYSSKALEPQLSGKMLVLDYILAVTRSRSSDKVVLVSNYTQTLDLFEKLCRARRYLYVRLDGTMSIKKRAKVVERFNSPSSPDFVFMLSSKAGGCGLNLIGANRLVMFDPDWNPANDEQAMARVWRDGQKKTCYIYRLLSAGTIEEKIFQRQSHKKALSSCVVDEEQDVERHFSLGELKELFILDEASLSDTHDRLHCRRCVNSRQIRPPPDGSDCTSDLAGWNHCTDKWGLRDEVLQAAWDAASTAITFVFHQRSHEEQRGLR

[21] = target: DNA repair protein RAD52 homolog (Homo sapiens, UniProt P43351); assay type: functional, biochemical
DNA repair protein RAD52 homolog, sequence (P43351 whole entry): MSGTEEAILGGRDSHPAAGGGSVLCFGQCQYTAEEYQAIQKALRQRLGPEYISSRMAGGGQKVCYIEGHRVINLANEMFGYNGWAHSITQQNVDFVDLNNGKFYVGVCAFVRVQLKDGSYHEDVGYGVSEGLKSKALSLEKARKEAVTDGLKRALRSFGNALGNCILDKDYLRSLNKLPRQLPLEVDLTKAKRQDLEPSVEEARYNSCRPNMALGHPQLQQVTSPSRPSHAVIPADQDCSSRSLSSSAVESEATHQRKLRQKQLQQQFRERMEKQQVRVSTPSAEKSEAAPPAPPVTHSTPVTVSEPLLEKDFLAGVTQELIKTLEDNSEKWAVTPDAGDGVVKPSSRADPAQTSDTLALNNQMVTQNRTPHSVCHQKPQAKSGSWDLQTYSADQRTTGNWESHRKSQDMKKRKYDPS

[22] = target: T3, Scavenger receptor class B member 1 (Mus musculus, UniProt Q61009); experiment: inhibitors of SR-BI-mediated HDL uptake, dose response, cell-based, ldlA[mSR-BI] CHO, DiI fluorescence, dry powder, set 10 (AID 624029); assay type: functional
T3 sequence (Q61009 whole entry): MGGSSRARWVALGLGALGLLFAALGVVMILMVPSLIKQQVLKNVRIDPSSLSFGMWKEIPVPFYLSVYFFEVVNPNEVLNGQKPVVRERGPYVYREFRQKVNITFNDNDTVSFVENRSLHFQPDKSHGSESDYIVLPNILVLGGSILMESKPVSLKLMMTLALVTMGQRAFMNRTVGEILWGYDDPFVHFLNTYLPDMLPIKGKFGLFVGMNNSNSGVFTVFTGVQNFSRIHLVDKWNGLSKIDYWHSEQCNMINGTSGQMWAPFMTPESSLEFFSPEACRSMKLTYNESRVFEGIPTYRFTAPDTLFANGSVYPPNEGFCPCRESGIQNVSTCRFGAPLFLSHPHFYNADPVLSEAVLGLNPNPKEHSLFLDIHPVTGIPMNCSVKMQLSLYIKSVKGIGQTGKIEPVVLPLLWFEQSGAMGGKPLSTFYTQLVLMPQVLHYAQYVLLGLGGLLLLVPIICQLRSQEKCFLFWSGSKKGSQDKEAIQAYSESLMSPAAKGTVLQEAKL

In the case of `CC(=O)NC(c1cccs1)c1cc([N+](=O)[O-])c2cccnc2c1O` (stereo unspecified), the EC50 (cells [1]) is reported as > 350 µM (not active), the AC50 (INS1) is reported as 4.94 µM (active) and the EC50 [2] is reported as > 150 µM (inactive). For the same molecule, the EC50 [3] was 46.7 µM (inconclusive), the IC50 [4] was 4.71 µM (active) and the EC50 [5] was > 180 µM (inactive). The EC50 (cells [6]) was 51.5 µM (active) and the EC50 [7] was 0.757 µM (active).
In the case of `COc1ccc2ccccc2c1-c1sc(Nc2ccccc2)n[n+]1-c1ccc(F)cc1`, the EC50 [8] is reported as > 30 µM (not active), the EC50 [9] is reported as 0.707 µM (active) and the AC50 (Vero) is reported as 31.6 µM (active).
In the case of `Cc1ccc(N2C(=O)CC(c3ccsc3)C3=C2CC(C)(C)CC3=O)cc1` (stereo unspecified), the AC50 [10] is reported as 5.07 µM (active), the AC50 [11] is reported as 3.55 µM (active) and the AC50 [12] is reported as 3.24 µM (active). The AC50 [13] was 18.9 µM (active), the AC50 (Cytochrome P450 2D6) was 39.8 µM (inconclusive) and the EC50 [14] was > 112 µM (not active). For the same molecule, the EC50 [15] was > 112 µM (not active).
For `COc1ccc(NC(=O)C2CCCN2S(=O)(=O)c2ccc3c(c2)CCC(=O)N3)cc1Cl` (stereo unspecified), the AC50 [10] was 14.8 µM (active), the AC50 [11] was 3.18 µM (active) and the EC50 (HEK293 [16]) was > 59.6 µM (inactive). For the same molecule, the EC50 (HEK293 [17]) was > 59.6 µM (inactive), the AC50 [12] was 7.43 µM (active) and the AC50 [13] was 17.3 µM (active).
With `COc1ccc(/C=C2/SC(c3ccc(C)cc3)=NC2=O)cc1OC` the EC50 (Troponin, cardiac muscle) was 0.742 µM (active), the IC50 (Beta-lactamase [18]) was > 59.6 µM (inactive) and the IC50 (Beta-lactamase [19]) was > 59.6 µM (inactive).
In the case of `CC(C)C[C@@H](COc1ccccc1)N1CCN(Cc2ccccc2)CCC1=O`, the AC50 (Vero) is reported as 33.5 µM (active).
For `CN(C)CCCNc1nc2cc(-c3ccc(F)cc3)sc2c(=O)n1C`, the AC50 [20] was 33.8 µM (active) and the AC50 [21] was 7.84 µM (active).
With `CC(C)NC(=O)Nc1ccc2c(c1)C(=O)N([C@H](C)CO)C[C@H](C)[C@H](CN(C)S(=O)(=O)c1ccc(Cl)cc1)O2` the AC50 [22] was 57.4 µM (active).
